Our source for the IC50 values is US20240109917A1 (ACTELION PHARMACEUTICALS LTD, priority 2020, published 2024).

pIC50: −log10 of the molar value. Read-outs that look alike come from different tables or passages of the source.

The target in experiment [1] is His6-TEV-PDGFRβ (557-1016) (Homo sapiens (Human), UniProt P09619). Nature of the experiment: PDGFRβ HTRF Assay. Format: biochemical. As to conditions: read-out: PDGFR HTRF IC50. The procedure, abridged: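 HTRF KinEASE-TK readout (665/620 nm ratio) of TK-biotin substrate phosphorylation by His-tagged PDGFRβ kinase domain. Enzyme and inhibitor preincubated 30 min, then ATP/substrate added for 3 h at room temperature before 60 min EDTA quench/detection.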
Chain of His6-TEV-PDGFRβ (557-1016) (P09619 557-1016): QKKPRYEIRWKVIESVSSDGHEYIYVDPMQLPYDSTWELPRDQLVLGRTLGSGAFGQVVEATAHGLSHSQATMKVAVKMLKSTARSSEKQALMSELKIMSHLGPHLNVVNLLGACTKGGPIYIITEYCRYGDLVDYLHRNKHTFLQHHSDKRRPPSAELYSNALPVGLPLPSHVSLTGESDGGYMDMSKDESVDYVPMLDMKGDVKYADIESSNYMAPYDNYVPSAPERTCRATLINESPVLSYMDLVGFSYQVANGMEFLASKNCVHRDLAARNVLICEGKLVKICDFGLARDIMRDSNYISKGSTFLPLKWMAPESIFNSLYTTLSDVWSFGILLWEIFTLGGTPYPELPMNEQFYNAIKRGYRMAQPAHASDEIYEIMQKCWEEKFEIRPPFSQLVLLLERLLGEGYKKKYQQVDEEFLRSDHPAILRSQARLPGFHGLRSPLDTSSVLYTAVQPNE
(TR-FRET usually uses a lanthanide donor and a delayed reading to cut background.)

For the next experiment, the target named is PDGFRβ (Rattus norvegicus (Rat), UniProt Q05030). Put plainly: PDGFRβ Cellular Assay (PDGFRb P-Y751 HTRF in A10 cells stimulated with PDGF-BB). It counts as cell-based. Put shortly: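 Phospho-Y751 PDGFRβ was measured by HTRF in lysates of A10 rat cells. Cells received compound for 3 hours before PDGF-BB stimulation (100 ng/mL working stock).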
Chain of PDGFRβ (Q05030 32-1097): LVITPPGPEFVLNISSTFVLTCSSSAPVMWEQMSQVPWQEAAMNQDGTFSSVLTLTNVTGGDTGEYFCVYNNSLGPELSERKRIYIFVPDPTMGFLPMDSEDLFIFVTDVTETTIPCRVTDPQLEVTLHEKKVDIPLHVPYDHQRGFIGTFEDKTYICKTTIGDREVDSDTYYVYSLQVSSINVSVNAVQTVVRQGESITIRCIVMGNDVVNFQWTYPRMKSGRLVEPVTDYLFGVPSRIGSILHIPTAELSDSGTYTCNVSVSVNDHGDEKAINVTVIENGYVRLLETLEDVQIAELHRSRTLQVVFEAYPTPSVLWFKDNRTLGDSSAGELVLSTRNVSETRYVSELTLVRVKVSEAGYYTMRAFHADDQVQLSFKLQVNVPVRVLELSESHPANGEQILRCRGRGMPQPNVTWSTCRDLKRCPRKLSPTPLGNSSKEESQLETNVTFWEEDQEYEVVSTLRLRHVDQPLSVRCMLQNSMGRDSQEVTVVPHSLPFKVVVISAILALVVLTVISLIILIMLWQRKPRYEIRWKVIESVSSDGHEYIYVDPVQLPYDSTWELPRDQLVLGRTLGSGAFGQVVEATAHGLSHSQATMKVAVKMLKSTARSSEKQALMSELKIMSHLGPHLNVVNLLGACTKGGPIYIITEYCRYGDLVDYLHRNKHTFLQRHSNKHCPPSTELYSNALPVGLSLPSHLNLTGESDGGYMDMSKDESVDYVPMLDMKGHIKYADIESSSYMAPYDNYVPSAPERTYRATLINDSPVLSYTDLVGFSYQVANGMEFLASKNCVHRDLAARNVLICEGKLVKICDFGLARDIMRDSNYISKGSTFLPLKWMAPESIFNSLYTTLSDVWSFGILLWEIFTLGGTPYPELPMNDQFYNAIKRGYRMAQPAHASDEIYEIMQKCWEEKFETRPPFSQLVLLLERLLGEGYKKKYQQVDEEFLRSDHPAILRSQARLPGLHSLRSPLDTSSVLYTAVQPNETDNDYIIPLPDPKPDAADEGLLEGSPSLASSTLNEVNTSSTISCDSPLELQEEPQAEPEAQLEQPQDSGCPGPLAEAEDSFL

As to `Cc1ncc(NC(=O)CN2C[C@@H](C)O[C@H](C)C2)cc1NC(=O)c1cnn2cc(-c3cn(C)nc3C)sc12` [Example 431], the pIC50 in experiment [1] is 9.30; at PDGFRβ (read-out: PDGFR Cellular IC50) it was 8.30.

As to `Cc1ncc(NC(=O)CN2CC(C)(C)C2)cc1NC(=O)c1cnn2cc(-c3cnn(C)c3C)sc12` [Example 434, 2-(1,5-Dimethyl-1H-pyrazol-4-yl)-N-(5-(2-(3,3-dimethylazetidin-1-yl)acetamido)-2-methylpyridin-3-yl)pyrazolo[5,1-b]thiazole-7-carboxamide], the results for the pIC50 (in experiment [1]; on PDGFRβ (read-out: PDGFR Cellular IC50)) were 9.70 and 8.62, respectively.

Regarding `Cc1ncc(NC(=O)CN2CC(C)(C)C2)cc1NC(=O)c1cnn2cc(-c3cnn(CCS(C)(=O)=O)c3)sc12` [Example 435, N-(5-(2-(3,3-Dimethylazetidin-1-yl)acetamido)-2-methylpyridin-3-yl)-2-(1-(2-(methylsulfonyl)ethyl)-1H-pyrazol-4-yl)pyrazolo[5,1-b]thiazole-7-carboxamide], the values for the pIC50 (in experiment [1]; at PDGFRβ (read-out: PDGFR Cellular IC50)) were 9.22 and 6.86, respectively.

For the molecule `CCOc1ncccc1-c1cn2ncc(C(=O)Nc3cc(NC(=O)CN4CC(C)(C)C4)cnc3C)c2s1` [Example 436, N-(5-(2-(3,3-Dimethylazetidin-1-yl)acetamido)-2-methylpyridin-3-yl)-2-(2-ethoxypyridin-3-yl)pyrazolo[5,1-b]thiazole-7-carboxamide], the pIC50 is 10.00 in experiment [1] and 8.80 at PDGFRβ (read-out: PDGFR Cellular IC50).

Consider `Cc1ncc(NC(=O)CN2CC(C)(C)C2)cc1NC(=O)c1cnn2cc(-c3cccnc3OC(F)(F)F)sc12` [Example 437, N-(5-(2-(3,3-dimethylazetidin-1-yl)acetamido)-2-methylpyridin-3-yl)-2-(2-(trifluoromethoxy)pyridin-3-yl)pyrazolo[5,1-b]thiazole-7-carboxamide], for which the pIC50 in experiment [1] is 9.40; on PDGFRβ (read-out: PDGFR Cellular IC50), 8.22.

Turning to `COC1CN(CC(=O)Nc2cnc(C)c(NC(=O)c3cnn4cc(-c5cn(C)nc5C)sc34)c2)C1` [Example 441, 2-(1,3-Dimethyl-1H-pyrazol-4-yl)-N-(5-(2-(3-methoxyazetidin-1-yl)acetamido)-2-methylpyridin-3-yl)pyrazolo[5,1-b]thiazole-7-carboxamide], the negative-log IC50 (pIC50) in experiment [1] was 9.15; at PDGFRβ (read-out: PDGFR Cellular IC50) it was 7.52.

Turning to `COC1(C)CN(CC(=O)Nc2cnc(C)c(NC(=O)c3cnn4cc(-c5cn(C)nc5C)sc34)c2)C1` [Example 442, 2-(1,3-Dimethyl-1H-pyrazol-4-yl)-N-(5-(2-(3-methoxy-3-methylazetidin-1-yl)acetamido)-2-methylpyridin-3-yl)pyrazolo[5,1-b]thiazole-7-carboxamide], the negative-log IC50 (pIC50) is 9.52 in experiment [1] and 8.09 on PDGFRβ (read-out: PDGFR Cellular IC50).

Turning to `Cc1ncc(NC(=O)CN2CCC[C@H]2C)cc1NC(=O)c1cnn2cc(-c3nn(C)nc3C)sc12` [Example 443, (R)-2-(2,5-dimethyl-2H-1,2,3-triazol-4-yl)-N-(2-methyl-5-(2-(2-methylpyrrolidin-1-yl)acetamido)pyridin-3-yl)pyrazolo[5,1-b]thiazole-7-carboxamide], the negative-log IC50 (pIC50) in experiment [1] was 9.40; on PDGFRβ (read-out: PDGFR Cellular IC50), 8.41.

On to `Cc1ncc(NC(=O)CN2CCCC2(C)C)cc1NC(=O)c1cnn2cc(-c3cn(C)nc3C)sc12` [Example 444, 2-(1,3-Dimethyl-1H-pyrazol-4-yl)-N-(5-(2-(2,2-dimethylpyrrolidin-1-yl)acetamido)-2-methylpyridin-3-yl)pyrazolo[5,1-b]thiazole-7-carboxamide], for which the negative-log IC50 (pIC50) in experiment [1] is 9.70; on PDGFRβ (read-out: PDGFR Cellular IC50) it was 8.89.

Take `Cc1ncc(NC(=O)CN2CC(C)(C)C2)cc1NC(=O)c1cnn2cc(-c3nn(C)nc3C)sc12` [Example 445, 2-(2,5-Dimethyl-2H-1,2,3-triazol-4-yl)-N-(5-(2-(3,3-dimethylazetidin-1-yl)acetamido)-2-methylpyridin-3-yl)pyrazolo[5,1-b]thiazole-7-carboxamide]: the pIC50 in experiment [1] was 9.52; on PDGFRβ (read-out: PDGFR Cellular IC50), 8.66.

For the molecule `Cc1ncc(NC(=O)CN2CCC(C)C2)cc1NC(=O)c1cnn2cc(-c3cn(C)nc3C)sc12` (stereo not shown) [Example 446, 2-(1,3-Dimethyl-1H-pyrazol-4-yl)-N-(2-methyl-5-(2-(3-methylpyrrolidin-1-yl)acetamido)pyridin-3-yl)pyrazolo[5,1-b]thiazole-7-carboxamide], the figures for the pIC50 (in experiment [1]; at PDGFRβ (read-out: PDGFR Cellular IC50)) were 9.52 and 8.52, respectively.

Turning to `Cc1ncc(NC(=O)CN2CCCC2(C)C)cc1NC(=O)c1cnn2cc(-c3cnn(CCO)c3)sc12` [Example 447, N-(5-(2-(2,2-dimethylpyrrolidin-1-yl)acetamido)-2-methylpyridin-3-yl)-2-(1-(2-hydroxyethyl)-1H-pyrazol-4-yl)pyrazolo[5,1-b]thiazole-7-carboxamide], the figures for the pIC50 (in experiment [1]; on PDGFRβ (read-out: PDGFR Cellular IC50)) were 9.30 and 7.91, respectively.

For the molecule `Cc1ncc(NC(=O)CN2CCCC2(C)C)cc1NC(=O)c1cnn2cc(-c3cccnc3OCCF)sc12` [Example 448, N-(5-(2-(2,2-dimethylpyrrolidin-1-yl)acetamido)-2-methylpyridin-3-yl)-2-(2-(2-fluoroethoxy)pyridin-3-yl)pyrazolo[5,1-b]thiazole-7-carboxamide], the pIC50 in experiment [1] is 9.70; on PDGFRβ (read-out: PDGFR Cellular IC50), 8.62.

Turning to `Cc1ncc(NC(=O)CN2CCCC2(C)C)cc1NC(=O)c1cnn2cc(-c3cccn(CCF)c3=O)sc12` [Example 449, N-(5-(2-(2,2-dimethylpyrrolidin-1-yl)acetamido)-2-methylpyridin-3-yl)-2-(1-(2-fluoroethyl)-2-oxo-1,2-dihydropyridin-3-yl)pyrazolo[5,1-b]thiazole-7-carboxamide], the figures for the negative-log IC50 (pIC50) (in experiment [1]; on PDGFRβ (read-out: PDGFR Cellular IC50)) were 9.15 and 7.97, respectively.

Turning to `Cc1ncc(C(=O)NCCN2CCCC2(C)C)cc1NC(=O)c1cnn2cc(-c3cnn4c3COCC4)sc12` [Example 450, 2-(6,7-dihydro-4H-pyrazolo[5,1-c][1,4]oxazin-3-yl)-N-(5-((2-(2,2-dimethylpyrrolidin-1-yl)ethyl)carbamoyl)-2-methylpyridin-3-yl)pyrazolo[5,1-b]thiazole-7-carboxamide], the pIC50 in experiment [1] was 9.40; on PDGFRβ (read-out: PDGFR Cellular IC50), 7.67.

`COCCn1cc(-c2cn3ncc(C(=O)Nc4cc(NC(=O)C[C@@H]5CCCN5C(C)C)cnc4C)c3s2)cn1` [Example 451, (S)—N-(5-(2-(1-isopropylpyrrolidin-2-yl)acetamido)-2-methylpyridin-3-yl)-2-(1-(2-methoxyethyl)-1H-pyrazol-4-yl)pyrazolo[5,1-b]thiazole-7-carboxamide]: the values for the negative-log IC50 (pIC50) (in experiment [1]; on PDGFRβ (read-out: PDGFR Cellular IC50)) were 9.10 and 7.17, respectively.

For the molecule `COCCn1cc(-c2cn3ncc(C(=O)Nc4cc(NC(=O)C5(CN6CCC[C@@H]6C)CC5)cnc4C)c3s2)cn1` [Example 452, (S)-2-(1-(2-methoxyethyl)-1H-pyrazol-4-yl)-N-(2-methyl-5-(1-((2-methylpyrrolidin-1-yl)methyl)cyclopropanecarboxamido)pyridin-3-yl)pyrazolo[5,1-b]thiazole-7-carboxamide], the pIC50 in experiment [1] is 7.92; on PDGFRβ (read-out: PDGFR Cellular IC50), 7.04.

`Cc1ncc(NC(=O)CNCC2CC2)cc1NC(=O)c1cnn2cc(-c3cnn4c3OCCC4)sc12` [Example 453, N-(5-(2-((cyclopropylmethyl)amino)acetamido)-2-methylpyridin-3-yl)-2-(6,7-dihydro-5H-pyrazolo[5,1-b][1,3]oxazin-3-yl)pyrazolo[5,1-b]thiazole-7-carboxamide]: the negative logarithm of the IC50 (pIC50) is 9.22 in experiment [1] and 7.60 on PDGFRβ (read-out: PDGFR Cellular IC50).

As to `Cc1ncc(NC(=O)CNCC2CC2)cc1NC(=O)c1cnn2cc(-c3cnn4c3CCC4)sc12` [Example 454, N-(5-(2-((cyclopropylmethyl)amino)acetamido)-2-methylpyridin-3-yl)-2-(5,6-dihydro-4H-pyrrolo[1,2-b]pyrazol-3-yl)pyrazolo[5,1-b]thiazole-7-carboxamide], the pIC50 was 9.40 in experiment [1] and 7.90 on PDGFRβ (read-out: PDGFR Cellular IC50).

`CCCNCC(=O)Nc1cnc(C)c(NC(=O)c2cnn3cc(-c4cnn5c4OCCC5)sc23)c1` [Example 455, 2-(6,7-dihydro-5H-pyrazolo[5,1-b][1,3]oxazin-3-yl)-N-(2-methyl-5-(2-(propylamino)acetamido)pyridin-3-yl)pyrazolo[5,1-b]thiazole-7-carboxamide]: the figures for the pIC50 (in experiment [1]; against PDGFRβ (PDGFR Cellular IC50)) were 9.22 and 7.82, respectively.

Consider `CCCNCC(=O)Nc1cnc(C)c(NC(=O)c2cnn3cc(-c4cnn5c4CCC5)sc23)c1` [Example 456, 2-(5,6-dihydro-4H-pyrrolo[1,2-b]pyrazol-3-yl)-N-(2-methyl-5-(2-(propylamino)acetamido)pyridin-3-yl)pyrazolo[5,1-b]thiazole-7-carboxamide], for which the pIC50 in experiment [1] was 9.40; at PDGFRβ (read-out: PDGFR Cellular IC50), 7.96.

Take `Cc1ncc(NC(=O)CN2CCCC2(C)C)cc1NC(=O)c1cnn2cc(-c3cnn(C(C)(C)CO)c3)sc12` [Example 457, N-(5-(2-(2,2-dimethylpyrrolidin-1-yl)acetamido)-2-methylpyridin-3-yl)-2-(1-(1-hydroxy-2-methylpropan-2-yl)-1H-pyrazol-4-yl)pyrazolo[5,1-b]thiazole-7-carboxamide]: the negative logarithm of the IC50 (pIC50) in experiment [1] was 9.40; on PDGFRβ (read-out: PDGFR Cellular IC50), 8.40.

On to `Cc1ncc(NC(=O)CN2CCCC2(C)C)cc1NC(=O)c1cnn2cc(-c3cnn4c3COCC4)sc12` [Example 458, 2-(6,7-dihydro-4H-pyrazolo[5,1-c][1,4]oxazin-3-yl)-N-(5-(2-(2,2-dimethylpyrrolidin-1-yl)acetamido)-2-methylpyridin-3-yl)pyrazolo[5,1-b]thiazole-7-carboxamide], for which the figures for the pIC50 (in experiment [1]; at PDGFRβ (read-out: PDGFR Cellular IC50)) were 9.52 and 8.70, respectively.

For orientation: pIC50 means −log10 of the IC50, conventionally taken in molar units.
